Experimental data published in ChEMBL document CHEMBL3390836, “Mannich- and LedererManasse-based analogues of the natural product S-(+)-curcuphenol as cancer proliferation and migration inhibitors” (Medchemcomm, 2012).

Key:
Format in all cases: functional
[1] = system: MDA-MB-435; assay: Cytotoxicity against human MDA-MB-435 cells after 48 hrs by SRB assay; conditions: MDA-MB-435, 48 h; for CC50: read-out: LC50 (the source's name)
[2] = system: TK-10; assay: Cytotoxicity against human TK10 cells after 48 hrs by SRB assay; conditions: TK-10, 48 h
[3] = system: U-251; assay: Cytotoxicity against human U251 cells assessed as cell growth at 10^-4 M after 48 hrs by SRB assay relative to control; conditions: U-251, 48 h, read-out: Activity
[4] = system: NCI-H226; assay: Cytotoxicity against human NCI-H226 cells assessed as cell growth at 10^-8 M after 48 hrs by SRB assay relative to control; conditions: NCI-H226, 48 h, read-out: Activity
[5] = system: T47D; assay: Cytotoxicity against human T47D cells assessed as cell growth at 10 uM after 48 hrs by SRB assay relative to control; conditions: read-out: Activity
[6] = system: BT-549; assay: Cytotoxicity against human BT549 cells assessed as cell growth at 10 uM after 48 hrs by SRB assay relative to control; conditions: BT-549, 48 h, read-out: Activity
[7] = Cytotoxicity against human Hs 578T cells assessed as cell growth at 10 uM after 48 hrs by SRB assay relative to control; conditions: read-out: Activity
[8] = system: MDA-MB-231; assay: Cytotoxicity against human MDA-MB-231 cells assessed as cell growth at 10 uM after 48 hrs by SRB assay relative to control; conditions: MDA-MB-231, 48 h, read-out: Activity
[9] = system: TK-10; assay: Cytotoxicity against human TK10 cells assessed as cell growth at 10 uM after 48 hrs by SRB assay relative to control; conditions: TK-10, 48 h, read-out: Activity
[10] = system: SN12C; assay: Cytotoxicity against human SN12C cells assessed as cell growth at 10 uM after 48 hrs by SRB assay relative to control; conditions: read-out: Activity
[11] = system: RXF 393; assay: Cytotoxicity against human RXF393 cells assessed as cell growth at 10 uM after 48 hrs by SRB assay relative to control; conditions: RXF 393, 48 h, read-out: Activity
[12] = Cytotoxicity against human NCI-ADR-RES cells assessed as cell growth at 10 uM after 48 hrs by SRB assay relative to control; conditions: read-out: Activity
[13] = Cytotoxicity against human UACC62 cells assessed as cell growth at 10^-4 M after 48 hrs by SRB assay relative to control; conditions: UACC-62, 48 h, read-out: Activity
[14] = Cytotoxicity against human OVCAR4 cells assessed as cell growth at 10^-4 M after 48 hrs by SRB assay relative to control; conditions: OVCAR-4, 48 h, read-out: Activity
[15] = system: CAKI-1; assay: Cytotoxicity against human Caki1 cells assessed as cell growth at 10^-4 M after 48 hrs by SRB assay relative to control; conditions: CAKI-1, 48 h, read-out: Activity
[16] = system: IGROV-1; assay: Cytotoxicity against human IGROV1 cells assessed as cell growth at 10^-8 M after 48 hrs by SRB assay relative to control; conditions: IGROV-1, 48 h, read-out: Activity
[17] = system: SF-539; assay: Cytotoxicity against human SF539 cells assessed as cell growth at 10^-7 M after 48 hrs by SRB assay relative to control; conditions: SF-539, 48 h, read-out: Activity
[18] = Cytotoxicity against human OVCAR4 cells assessed as cell growth at 10 uM after 48 hrs by SRB assay relative to control; conditions: OVCAR-4, 48 h, read-out: Activity
[19] = Cytotoxicity against human OVCAR3 cells assessed as cell growth at 10 uM after 48 hrs by SRB assay relative to control; conditions: OVCAR-3, 48 h, read-out: Activity
[20] = system: SK-MEL-2; assay: Cytotoxicity against human SK-MEL-2 cells assessed as cell growth at 10 uM after 48 hrs by SRB assay relative to control; conditions: SK-MEL-2, 48 h, read-out: Activity
[21] = system: MDA-MB-435; assay: Cytotoxicity against human MDA-MB-435 cells assessed as cell growth at 10 uM after 48 hrs by SRB assay relative to control; conditions: MDA-MB-435, 48 h, read-out: Activity
[22] = system: M14; assay: Cytotoxicity against human M14 cells assessed as cell growth at 10 uM after 48 hrs by SRB assay relative to control; conditions: M14, 48 h, read-out: Activity
[23] = system: Malme-3M; assay: Cytotoxicity against human MALME-3M cells assessed as cell growth at 10 uM after 48 hrs by SRB assay relative to control; conditions: read-out: Activity
[24] = system: U-251; assay: Cytotoxicity against human U251 cells assessed as cell growth at 10 uM after 48 hrs by SRB assay relative to control; conditions: U-251, 48 h, read-out: Activity
[25] = system: HT-29; assay: Cytotoxicity against human HT-29 cells assessed as cell growth at 10 uM after 48 hrs by SRB assay relative to control; conditions: HT-29, 48 h, read-out: Activity
[26] = system: HCC 2998; assay: Cytotoxicity against human HCC2998 cells assessed as cell growth at 10 uM after 48 hrs by SRB assay relative to control; conditions: HCC 2998, 48 h, read-out: Activity
[27] = system: COLO 205; assay: Cytotoxicity against human COLO205 cells assessed as cell growth at 10 uM after 48 hrs by SRB assay relative to control; conditions: COLO 205, 48 h, read-out: Activity
[28] = system: NCI-H522; assay: Cytotoxicity against human NCI-H522 cells assessed as cell growth at 10 uM after 48 hrs by SRB assay relative to control; conditions: NCI-H522, 48 h, read-out: Activity
[29] = system: NCI-H322M; assay: Cytotoxicity against human NCI-H322M cells assessed as cell growth at 10 uM after 48 hrs by SRB assay relative to control; conditions: read-out: Activity
[30] = system: HOP-92; assay: Cytotoxicity against human HOP92 cells assessed as cell growth at 10 uM after 48 hrs by SRB assay relative to control; conditions: HOP-92, 48 h, read-out: Activity
[31] = system: NCI-H226; assay: Cytotoxicity against human NCI-H226 cells assessed as cell growth at 10 uM after 48 hrs by SRB assay relative to control; conditions: NCI-H226, 48 h, read-out: Activity
[32] = system: HOP-62; assay: Cytotoxicity against human HOP62 cells assessed as cell growth at 10 uM after 48 hrs by SRB assay relative to control; conditions: HOP-62, 48 h, read-out: Activity
[33] = system: MOLT-4; assay: Cytotoxicity against human MOLT4 cells assessed as cell growth at 10 uM after 48 hrs by SRB assay relative to control; conditions: MOLT-4, 48 h, read-out: Activity
[34] = system: SR; assay: Cytotoxicity against human SR cells assessed as cell growth at 10 uM after 48 hrs by SRB assay relative to control; conditions: read-out: Activity
[35] = system: DU-145; assay: Cytotoxicity against human DU145 cells assessed as cell growth at 10 uM after 48 hrs by SRB assay relative to control; conditions: DU-145, 48 h, read-out: Activity
[36] = system: SF-268; assay: Cytotoxicity against human SF268 cells assessed as cell growth at 10 uM after 48 hrs by SRB assay relative to control; conditions: SF-268, 48 h, read-out: Activity

| SMILES | GI50 [1] [µM] | TGI [1] [µM] | CC50 [1] [µM] | GI50 [2] [µM] | LC50 [2] [µM] | TGI [2] [µM] | growth at 100 µM [3] [%] | growth at 0.01 µM [4] [%] | growth at 10 µM [5] [%] | growth at 10 µM [7] [%] | growth at 10 µM [8] [%] | growth at 10 µM [9] [%] | growth at 10 µM [10] [%] | growth at 10 µM [11] [%] | growth at 10 µM [12] [%] | growth at 100 µM [13] [%] | growth at 100 µM [14] [%] | growth at 100 µM [15] [%] | growth at 0.01 µM [16] [%] | growth at 0.1 µM [17] [%] | further results |
| --- | --- | --- | --- | --- | --- | --- | --- | --- | --- | --- | --- | --- | --- | --- | --- | --- | --- | --- | --- | --- | --- |
| COc1ccc(CCN2COc3c([C@@H](C)CCC=C(C)C)ccc(C)c3C2)cc1OC | 3.11 | 10.9 | 44.9 | 2.19 | 24.6 | 5.95 | -100 | 90 | -64 | 21 | -3 | -26 | 15 | -35 | -2 | -99 | -45 | -86 | 119 | 88 | growth at 10 µM [6]: 87.9%; growth at 10 µM [18]: 11%; growth at 10 µM [19]: 16%; growth at 10 µM [20]: -68%; growth at 10 µM [21]: 3%; growth at 10 µM [22]: -91%; growth at 10 µM [23]: -78%; growth at 10 µM [24]: -47%; growth at 10 µM [25]: -29%; growth at 10 µM [26]: -99%; growth at 10 µM [27]: -99%; growth at 10 µM [28]: 64.7%; growth at 10 µM [29]: 5%; growth at 10 µM [30]: -1.29%; growth at 10 µM [31]: 47%; growth at 10 µM [32]: -76%; growth at 10 µM [33]: 23% |
| CC(C)=CCC[C@H](C)c1ccc(C)c2c1OCN(CC1CCNCC1)C2 | 6.48 | 20.9 | 53.4 | 14.4 | 59.5 | 29.3 | -87 | 86 | -94.4 | 64.3 | 64 | 75 | 47 | 55.2 | 83.5 | -92 | -91 | -69 | 101 | 94 | growth at 10 µM [6]: 55.8%; growth at 10 µM [34]: -8.52%; growth at 10 µM [35]: 93.9%; growth at 10 µM [36]: 93%; growth at 10 µM [18]: 86%; growth at 10 µM [19]: 77.2%; growth at 10 µM [20]: 95%; growth at 10 µM [21]: 14.7%; growth at 10 µM [22]: -95.4%; growth at 10 µM [23]: 90%; growth at 10 µM [24]: -13%; growth at 10 µM [25]: -68.5%; growth at 10 µM [26]: -82.1%; growth at 10 µM [27]: 75.9%; growth at 10 µM [29]: 98%; growth at 10 µM [30]: 12.3%; growth at 10 µM [31]: 94%; growth at 10 µM [32]: 80%; growth at 10 µM [33]: 34.1% |
| CC(C)=CCC[C@H](C)c1ccc(C)c(CNCC2CCNCC2)c1O | 3.71 | 8.44 | 19.2 | 0.0551 | > 25 | 17.8 | -81 | 98 | 88 | 71 | 69 | 89.4 | 78 | 65 | 84 | -81 | 44 | -29 | 102 | 91 | growth at 10 µM [34]: 0.23%; growth at 10 µM [35]: 91.2%; growth at 10 µM [36]: 87.7%; growth at 10 µM [18]: 88%; growth at 10 µM [19]: 83%; growth at 10 µM [20]: 102%; growth at 10 µM [21]: 13.9%; growth at 10 µM [22]: 46.7%; growth at 10 µM [23]: 88%; growth at 10 µM [24]: 57%; growth at 10 µM [25]: 8.29%; growth at 10 µM [26]: -3.94%; growth at 10 µM [27]: -59%; growth at 10 µM [28]: 86.8%; growth at 10 µM [29]: 80%; growth at 10 µM [31]: 72%; growth at 10 µM [32]: 84%; growth at 10 µM [33]: 77% |
